In patent publication US8227205B2 (priority 2007, dated 2012):

Key:
Type in all cases: cell-based
[1] = system: Jurkat cells; experiment: CytoTox-Glo live and dead cell luminescence assay; settings: Jurkat cells, 10,000 cells/well, 6 hours, FIG. 5/FIG. 7
Experimental: Ionomycin (a calcium ionophore which affects calcium flux across cell membranes, and therefore a model necrosis inducing agent at high concentrations) was two fold serially diluted from 100 μM in RPMI 1640+10% FBS in 50 μL volumes. Jurkat cells were added to 10,000 cells/well in a 50 μL volume. The plate was shaken briefly using an orbital shaker and then incubated for 6 hours at 37° C. CytoTox-Glo Reagent was prepared as above and added to each well in a equal volume (100 μL) per well. The plate was incubated at room temperature for 15 minutes and the dead cell signal measured using a BMG PolarStar. Digitonin (20 mg/mL in DMSO) was diluted to 300 μg/mL in CytoTox-Glo buffer and added in 20 μL volumes per well to facilitate complete cellular lysis. Luminescence was measured after 15 minutes of incubation at room temperature.
The luminescent signal collected after lysis was adjusted to reflect the “live cell” contribution by subtracting the initial dead cell signal. […]
Staurosporine (multiple mechanism apoptosis inducer) was two fold serially diluted from 20 μM in RPMI 1640+10% FBS in a microwell plate in 50 μL, volumes. […] The plate was incubated at room temperature for 15 minutes and the dead cell signal measured using a BMG PolarStar. […] Luminescence was measured after 15 minutes of incubation at room temperature. […]

[2] = system: K562cells; experiment: CytoTox-Glo dual measurement of cell viability and cytotoxicity (dead cell luminescence, then digitonin lysis, subtractive live cell signal); settings: K562 cells, 5,000 cells/well, 24 hours, two-fold serial dilution from 10 μM, FIG. 11A
Experimental: (§1) Campothecin was two-fold serially-diluted in RPMI 1640+10% FBS medium from 10 μM and added in 50 μL volumes. The cells were incubated at 37° C., 5% CO2 for 24 hours. CytoTox-Glo reagent was prepared as described above and added to each well in an equal volume (100 μL). After 15 minutes of incubation, the dead cell signal was measured. Digitonin (20 mg/mL in DMSO) was diluted in CytoTox-Glo buffer and added in 20 μL volumes to each well to facilitate complete cell lysis. Luminescence was measured after 15 minutes of incubation at room temperature.
The luminescent signal collected after lysis was adjusted to reflect the “live cell” contribution by subtracting the initial dead cell signal. The data were plotted as the non-viable and viable signals versus the concentration of campothecin (FIG. 11A). […] If only viability was measured, one might conclude that the compound was substantially cytotoxic. If only cytotoxicity was measured, one might conclude that the compound was not very potent. Either interpretation would be faulty.

[3] = system: HeLa cells; experiment: as above; settings: HeLa cells, 10,000 cells/well, 24 hours, FIG. 11B/11C
Experimental: In FIG. 11B, HeLa cells were seeded at a 10,000 cells/well in DMEM+10% FBS in 50 μl volumes and incubated overnight at 37° C. in 5% CO2. Nocodazole was two-fold serially diluted in DMEM+10% FBS in a separate plate from 2 μM and added in 50 μL it volumes (highest final dosage is 1,000 nM). The cells were allowed to incubate with the compound for 24 hours. CytoTox-Glo Reagent was prepared as above and added to each well in an equal volume (100 μL). After 15 minutes of incubation, the dead cell signal was collected. Digitonin (20 mg/mL in DMSO) was diluted in CytoTox-Glo buffer and added in 20 μL volumes to each well to facilitate complete cell lysis. Luminescence was measured after 15 minutes of incubation at room temperature.
The luminescent signal collected after lysis was adjusted to reflect the “live cell” contribution by subtracting the initial dead cell signal. The data were plotted as the non-viable and viable signals versus the concentration of nocodazole.
In FIG. 11C, HeLa cells were seeded at a 10,000 cells/well in DMEM+10% FBS in 50 μL volumes and incubated overnight at 37° C. in 5% CO2. Colchicine was two-fold serially diluted in DMEM+10% FBS in a separate plate from 1,000 nM and added in 50 μL volumes (highest final dosage was 500 nM). The cells were allowed to incubate with the compound for 24 hours. […] Luminescence was measured after 15 minutes of incubation at room temperature. […]

[4] = system: DU-145 cells; experiment: CytoTox-Glo live and dead cell luminescence assay; settings: DU-145 cells, 5,000 cells/well, 48 hours, FIG. 10A
Experimental: as §1, with “DU-145 cells were seeded at a density of 5,000 cells/well in 50 μL of MEM+10% FBS and allowed to attach overnight. Epoxomicin (a proteasome inhibitor)” for “Campothecin”, “serially diluted from 5 μM” for “two-fold serially-diluted”, “MEM+10%” for “RPMI 1640+10%”, “FBS” for “FBS medium from 10 μM”, “with the compound” for “at 37° C., 5% CO2”, “48” for “24”
The luminescent signal collected after lysis was adjusted to reflect the “live cell” contribution by subtracting the initial dead cell signal. The data were plotted as the non-viable and viable signals versus the concentration of epoxomicin (FIG. 10A). […] The data also represents yet another toxin and mechanistic form of cell death.

SMILES | dead and live cell signals versus the concentration of compound [1] | non-viable and viable signals versus the concentration of compound (viability and cytotoxicity) [3] | other results
CN[C@@H]1C[C@H]2O[C@@](C)([C@@H]1OC)n1c3ccccc3c3c4c(c5c6ccccc6n2c5c31)C(=O)NC4 [Staurosporine] | live and dead cells were inversely complimentary |  | 
CC[C@@]1(O)C(=O)OCc2c1cc1n(c2=O)Cc2cc3ccccc3nc2-1 [campothecin, Campothecin] |  |  | non-viable and viable signals versus the concentration of compound (viability and cytotoxicity) [2]: early cytotoxicity because of cell-cycle arrest
COc1cc2c(c(OC)c1OC)-c1ccc(OC)c(=O)cc1[C@@H](NC(C)=O)CC2 [colchicine, Colchicine] |  | viability is reduced because of the cytotoxicity of the compound | 
CC[C@H](C)[C@H](NC(=O)[C@H]([C@@H](C)CC)N(C)C(C)=O)C(=O)N[C@H](C(=O)N[C@@H](CC(C)C)C(=O)[C@@]1(C)CO1)[C@@H](C)O [epoxomicin, Epoxomicin] |  |  | non-viable and viable signals versus the concentration of compound [4]: viable and non-viable cells were inversely complimentary
C[C@H](CCC(=O)O)C[C@H](C)C[C@H](C)C(=O)/C=C(\O)[C@H](C)C[C@H](C)C/C=C/[C@@H](C)[C@@H](O)[C@@H](C)[C@@H](O)C[C@@H]1CC[C@@](C)([C@H]2CC[C@@](C)([C@@H](C)O)O2)O1 [ionomycin, Ionomycin] | live and dead cells were inversely complimentary |  | 
COC(=O)Nc1nc2ccc(C(=O)c3cccs3)cc2[nH]1 [nocodazole, Nocodazole] |  | viability and cytotoxicity are ratiometric | 
